One may read the IC50 as the concentration needed to halve the response being measured.

Bridge positions count the residues as written; N and C are the ends. Square brackets hold non-standard residues; d marks the D form. Peptide text beside a SMILES is read from it. * marks the point of attachment. ξ: configuration not given here. Tyr(3-NO2) = N[C@@H](Cc1ccc(O)c([N+](=O)[O-])c1)C(=O)O; Asp(3,3-Me2) = CC(C)(C(=O)O)[C@H](N)C(=O)O; Bip = N[C@@H](Cc1ccc(-c2ccccc2)cc1)C(=O)O; Phe(4-CN) = N#Cc1ccc(C[C@H](N)C(=O)O)cc1; Phe(3-Me) = Cc1cccc(C[C@H](N)C(=O)O)c1; Bta = N[C@@H](Cc1csc2ccccc12)C(=O)O; hTyr = N[C@@H](CCc1ccc(O)cc1)C(=O)O; Val(3-OH) = CC(C)(O)[C@H](N)C(=O)O; 4Pal = N[C@@H](Cc1ccncc1)C(=O)O; 2Thi = N[C@@H](Cc1cccs1)C(=O)O; Cha = N[C@@H](CC1CCCCC1)C(=O)O; Cit = NC(=O)NCCC[C@H](N)C(=O)O; Ile(3ξ) = CCC(C)[C@H](N)C(=O)O; Thr(3ξ) = CC(O)[C@H](N)C(=O)O; Carboxymethyl = O=C(O)C*; NMeA = CN[C@@H](C)C(=O)O; Dab = NCC[C@H](N)C(=O)O; Dap = NC[C@H](N)C(=O)O

The target in the experiment is T1, PE-labeled human PD-L1-Ig binding to Jurkat cell line over-expressing human PD-1 (Jurkat-PD-1) (Homo sapiens, UniProt Q15116).
T1 construct: expressed in transfected cells; host or cells: Jurkat
T1 sequence (Q15116 25-288): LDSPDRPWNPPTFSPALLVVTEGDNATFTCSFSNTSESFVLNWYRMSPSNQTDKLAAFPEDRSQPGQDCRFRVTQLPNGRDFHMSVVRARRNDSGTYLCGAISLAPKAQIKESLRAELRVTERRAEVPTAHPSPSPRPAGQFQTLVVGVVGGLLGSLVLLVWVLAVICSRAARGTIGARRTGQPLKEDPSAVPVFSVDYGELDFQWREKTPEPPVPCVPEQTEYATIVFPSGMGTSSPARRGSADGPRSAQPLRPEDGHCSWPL
The experiment in a line: Jurkat-PD-1 Cell Binding High-Content Screening Assay (CBA): Method 1. The settings on record: Jurkat-hPD-1 cells, PE-labeled PD-L1-Ig 20 nM final; read-out: Jurkat HPDL1 PD1 IC50 (uM) (Method 1).
Experimental: Phycoerythrin (PE) was covalently linked to the Ig epitope tag of human PD-L1-Ig and fluorescently-labeled PD-L1-Ig was used for binding studies with a Jurkat cell line over-expressing human PD-1 (Jurkat-PD-1). Briefly, 8×10^3 Jurkat-hPD-1 cells were seeded into 384 well plates in 20 μl of DMEM supplemented with 10% fetal calf serum. 100 nl of compound was added to cells followed by incubation at 37° C. for 2 hours. Then, 5 μl of PE-labeled PD-L1-Ig (20 nM final), diluted in DMEM supplemented with 10% fetal calf serum. […] Data was collected and processed using a Cell Insight NXT High Content Imager and associated software.
Regarding `Cc1cccc(C[C@@H]2NC(=O)[C@H](CC(=O)O)NC(=O)[C@H](Cc3ccc(OCC(=O)O)cc3)NC(=O)[C@H](Cc3ccncc3)NC(=O)CSC[C@@H](C(N)=O)NC(=O)[C@H](CC(=O)O)NC(=O)[C@H](C(C)C)NC(=O)[C@H](CC3CCCCC3)NC(=O)[C@H](CCN)NC(=O)[C@@H](CC(C)C)NC(=O)[C@H](C)N(C)C(=O)[C@H](Cc3ccc(OCC(=O)O)cc3)NC(=O)[C@H](Cc3ccc(-c4ccccc4)cc3)NC(=O)[C@H](Cc3ccc(OCC(=O)O)cc3)NC2=O)c1` [Compound 1658] ({CH2CO}-[4Pal]Y(Carboxymethyl)D[Phe(3-Me)]Y(Carboxymethyl)[Bip]Y(Carboxymethyl)[NMeA][dL][Dab][Cha]VDC-NH2; thioether N-14), the half-maximal inhibitory concentration (IC50) came to 0.03 µM.

`CC(C)C[C@@H]1NC(=O)[C@H](Cc2c[nH]c3ccccc23)NC(=O)[C@H](CC(=O)O)NC(=O)[C@H](Cc2ccncc2)NC(=O)[C@H](Cc2ccc(OCC(=O)O)cc2)NC(=O)CSC[C@@H](C(=O)N[C@H](CC(N)=O)C(N)=O)NC(=O)[C@H]([C@@H](C)O)NC(=O)[C@H](C(C)C)NC(=O)[C@H](CC2CCCCC2)NC(=O)[C@H](CCN)NC(=O)[C@@H](CC(C)C)NC(=O)[C@H](C)N(C)C(=O)[C@H](C(C)C)NC(=O)[C@H](Cc2ccc(-c3ccccc3)cc2)NC1=O` [Compound 1903] ({CH2CO}-Y(Carboxymethyl)[4Pal]DWL[Bip]V[NMeA][dL][Dab][Cha]VTC[dN]-NH2; thioether N-14): the IC50 worked out at 0.04 µM.

For the compound `CC(C)C[C@@H]1NC(=O)[C@H](CCN)NC(=O)[C@H](Cc2csc3ccccc23)NC(=O)[C@H](C)N(C)C(=O)[C@H](CCC(=O)O)NC(=O)[C@H](Cc2ccc(-c3ccccc3)cc2)NC(=O)[C@H](C(C)C)NC(=O)[C@H](Cc2c[nH]c3ccccc23)NC(=O)[C@H](CC(=O)O)NC(=O)[C@H](Cc2ccc(O)cc2)NC(=O)[C@H](Cc2ccccc2)NC(=O)CSC[C@@H](C(=O)N[C@@H](C)C(N)=O)NC(=O)[C@H]([C@@H](C)O)NC(=O)[C@H](C(C)C)NC1=O` [Compound 1143] ({CH2CO}-FYDWV[Bip]E[NMeA][Bta][Dab]LVTCA-NH2; thioether N-14), the IC50 was 0.24 µM.

For `Cc1cccc(C[C@@H]2NC(=O)[C@H](CC(=O)O)NC(=O)[C@H](Cc3ccc(OCC(=O)O)cc3)NC(=O)[C@H](CCN)NC(=O)CSC[C@@H](C(=O)N[C@@H](CCN)C(N)=O)NC(=O)[C@H](CO)NC(=O)[C@H](C(C)(C)O)NC(=O)[C@H](CC3CCCCC3)NC(=O)[C@H](CCN)NC(=O)[C@@H](CC(C)C)NC(=O)[C@H](C)N(C)C(=O)[C@H](C(C)(C)C(=O)O)NC(=O)[C@H](Cc3ccc(-c4ccccc4)cc3)NC(=O)[C@H](Cc3ccc(OCC(=O)O)cc3)NC2=O)c1` [Compound 1846] ({CH2CO}-[Dab]Y(Carboxymethyl)D[Phe(3-Me)]Y(Carboxymethyl)[Bip][Asp(3,3-Me2)][NMeA][dL][Dab][Cha][Val(3-OH)]SC[Dab]-NH2; thioether N-14), the IC50 came to 0.02 µM. With `Cc1cccc(C[C@@H]2NC(=O)[C@H](CC(=O)O)NC(=O)[C@H](Cc3ccc(OCC(=O)O)cc3)NC(=O)[C@H](Cc3ccncc3)NC(=O)CSC[C@@H](C(=O)N[C@@H](CCN)C(N)=O)NC(=O)[C@H](CO)NC(=O)[C@H](C(C)C)NC(=O)[C@H](CC3CCCCC3)NC(=O)[C@H](CCN)NC(=O)[C@@H](CC(C)C)NC(=O)[C@H](C)N(C)C(=O)[C@H](Cc3ccc(OCC(=O)O)cc3)NC(=O)[C@H](Cc3ccc(-c4ccccc4)cc3)NC(=O)[C@H](Cc3ccc(OCC(=O)O)cc3)NC2=O)c1` [Compound 1860] ({CH2CO}-[4Pal]Y(Carboxymethyl)D[Phe(3-Me)]Y(Carboxymethyl)[Bip]Y(Carboxymethyl)[NMeA][dL][Dab][Cha]VSC[Dab]-NH2; thioether N-14), the 50% inhibitory concentration (IC50) is 0.01 µM. Take `CCC(C)[C@@H]1NC(=O)[C@H](Cc2ccc(-c3ccccc3)cc2)NC(=O)[C@H](C(C)C)NC(=O)[C@H](Cc2c[nH]c3ccccc23)NC(=O)[C@H](CC(=O)O)NC(=O)[C@H](Cc2ccc(O)cc2)NC(=O)[C@H](Cc2cccs2)NC(=O)CSC[C@@H](C(=O)N[C@@H](CCCNC(=N)N)C(N)=O)NC(=O)[C@H](C(C)O)NC(=O)[C@H](C(C)(C)O)NC(=O)[C@H](CC2CCCCC2)NC(=O)[C@H](CC(N)=O)NC(=O)[C@@H](CC(C)C)NC(=O)[C@H](C)N(C)C1=O` (stereo partly drawn) [Compound 2172] ({CH2CO}-[2Thi]YDWV[Bip][Ile(3ξ)][NMeA][dL]N[Cha][Val(3-OH)][Thr(3ξ)]CR-NH2; thioether N-14): the IC50 stood at 0.08 µM. Regarding `CC(C)C[C@@H]1NC(=O)[C@H](CCCNC(=N)N)NC(=O)[C@@H](CC(C)C)NC(=O)[C@H](C)N(C)C(=O)[C@H](CCCNC(=N)N)NC(=O)[C@H](Cc2ccc(-c3ccccc3)cc2)NC(=O)[C@H](C(C)C)NC(=O)[C@H](Cc2c[nH]c3ccccc23)NC(=O)[C@H](CC(=O)O)NC(=O)[C@H](Cc2ccc(O)c([N+](=O)[O-])c2)NC(=O)[C@H](Cc2ccccc2)NC(=O)CSC[C@@H](C(=O)N[C@@H](C)C(N)=O)NC(=O)[C@H]([C@@H](C)O)NC(=O)[C@H](C(C)C)NC1=O` [Compound 1095] ({CH2CO}-F[Tyr(3-NO2)]DWV[Bip]R[NMeA][dL]RLVTCA-NH2; thioether N-14), the 50% inhibitory concentration (IC50) came to 0.15 µM. Turning to `CC(C)C[C@@H]1NC(=O)[C@H](CCN)NC(=O)[C@@H](CC(C)C)NC(=O)[C@H](C)N(C)C(=O)[C@H](CCCNC(=N)N)NC(=O)[C@H](Cc2ccc(-c3ccccc3)cc2)NC(=O)[C@H](C(C)C)NC(=O)[C@H](Cc2c[nH]c3ccccc23)NC(=O)[C@H](CC(=O)O)NC(=O)[C@H](CCc2ccc(O)cc2)NC(=O)[C@H](CC(N)=O)NC(=O)CSC[C@@H](C(=O)N[C@@H](C)C(N)=O)NC(=O)[C@H]([C@@H](C)O)NC(=O)[C@H](C(C)C)NC1=O` [Compound 1354] ({CH2CO}-N[hTyr]DWV[Bip]R[NMeA][dL][Dab]LVTCA-NH2; thioether N-14), the IC50 worked out at 0.02 µM.

As to `Cc1cccc(C[C@@H]2NC(=O)[C@H](CC(=O)O)NC(=O)[C@H](Cc3ccc(OCC(=O)O)cc3)NC(=O)[C@H](CN)NC(=O)CSC[C@@H](C(N)=O)NC(=O)[C@H](CO)NC(=O)[C@H](C(C)C)NC(=O)[C@H](CC(C)C)NC(=O)[C@H](CC(N)=O)NC(=O)[C@@H](CC(C)C)NC(=O)[C@H](C)N(C)C(=O)[C@H](CCCNC(N)=O)NC(=O)[C@H](Cc3ccc(-c4ccccc4)cc3)NC(=O)[C@H](CC(C)C)NC2=O)c1` [Compound 1644] ({CH2CO}-[Dap]Y(Carboxymethyl)D[Phe(3-Me)]L[Bip][Cit][NMeA][dL]NLVSC-NH2; thioether N-14), the half-inhibitory concentration (IC50) stood at 0.06 µM. Regarding `CC(C)C[C@@H]1NC(=O)[C@H](CCN)NC(=O)[C@@H](CC(C)C)NC(=O)[C@H](C)N(C)C(=O)[C@H](CCC(=O)O)NC(=O)[C@H](Cc2ccc(-c3ccccc3)cc2)NC(=O)[C@H](C(C)C)NC(=O)[C@H](Cc2c[nH]c3ccccc23)NC(=O)[C@H](CC(=O)O)NC(=O)[C@H](Cc2ccc(O)cc2)NC(=O)[C@H](CC(N)=O)NC(=O)CSC[C@@H](C(=O)N[C@@H](C)C(N)=O)NC(=O)[C@H]([C@@H](C)O)NC(=O)[C@H](C(C)C)NC1=O` [Compound 1255] ({CH2CO}-NYDWV[Bip]E[NMeA][dL][Dab]LVTCA-NH2; thioether N-14), the IC50 amounted to 0.03 µM. The same measure for `CC(C)C[C@@H]1NC(=O)[C@H](Cc2c[nH]c3ccccc23)NC(=O)[C@H](CC(=O)O)NC(=O)[C@H](Cc2ccc(C#N)cc2)NC(=O)[C@H](Cc2ccccc2)NC(=O)CSC[C@@H](C(=O)NCC(N)=O)NC(=O)[C@H](CO)NC(=O)[C@H](C(C)C)NC(=O)[C@H](CC(C)C)NC(=O)[C@H](CC(N)=O)NC(=O)[C@@H](CC(C)C)NC(=O)[C@H](C)N(C)C(=O)[C@H](C(C)C)NC(=O)[C@H](Cc2ccc(-c3ccccc3)cc2)NC1=O` [Compound 1525] ({CH2CO}-F[Phe(4-CN)]DWL[Bip]V[NMeA][dL]NLVSCG-NH2; thioether N-14): 0.03 µM. Then `Cc1cccc(C[C@@H]2NC(=O)[C@H](Cc3ccccc3)NC(=O)CSC[C@@H](C(=O)NCC(N)=O)NC(=O)[C@H](CO)NC(=O)[C@H](C(C)C)NC(=O)[C@H](CC(C)C)NC(=O)[C@H](CC(N)=O)NC(=O)[C@@H](CC(C)C)NC(=O)[C@H](C)N(C)C(=O)[C@H](C(C)C)NC(=O)[C@H](Cc3ccc(-c4ccccc4)cc3)NC(=O)[C@H](CC(C)C)NC(=O)[C@H](Cc3c[nH]c4ccccc34)NC(=O)[C@H](CC(=O)O)NC2=O)c1` [Compound 1518] ({CH2CO}-F[Phe(3-Me)]DWL[Bip]V[NMeA][dL]NLVSCG-NH2; thioether N-14), with 0.05 µM; and `CC[C@H](C)[C@@H]1NC(=O)[C@H](Cc2ccc(-c3ccccc3)cc2)NC(=O)[C@H](C(C)C)NC(=O)[C@H](Cc2cccc(C)c2)NC(=O)[C@H](CC(=O)O)NC(=O)[C@H](Cc2ccc(O)cc2)NC(=O)[C@H](CC(N)=O)NC(=O)CSC[C@@H](C(=O)N[C@H](C)C(N)=O)NC(=O)[C@H]([C@@H](C)O)NC(=O)[C@H](C(C)(C)O)NC(=O)[C@H](CC(C)C)NC(=O)[C@H](CCN)NC(=O)[C@@H](CC(C)C)NC(=O)[C@H](C)N(C)C1=O` [Compound 1685] ({CH2CO}-NYD[Phe(3-Me)]V[Bip]I[NMeA][dL][Dab]L[Val(3-OH)]TC[dA]-NH2; thioether N-14), with 0.1 µM; and `CC(C)C[C@@H]1NC(=O)[C@H](Cc2c[nH]c3ccccc23)NC(=O)[C@H](CC(=O)O)NC(=O)[C@H](Cc2ccc(OCC(=O)O)cc2)NC(=O)[C@H](Cc2ccc(OCC(=O)O)cc2)NC(=O)CSC[C@@H](C(=O)N[C@@H](C)C(N)=O)NC(=O)[C@H](CO)NC(=O)[C@H](C(C)C)NC(=O)[C@H](CC(C)C)NC(=O)[C@H](CCN)NC(=O)[C@@H](CC(C)C)NC(=O)[C@H](C)N(C)C(=O)[C@H](C(C)C)NC(=O)[C@H](Cc2ccc(-c3ccccc3)cc2)NC1=O` [Compound 2123] ({CH2CO}-Y(Carboxymethyl)Y(Carboxymethyl)DWL[Bip]V[NMeA][dL][Dab]LVSCA-NH2; thioether N-14), with 0.02 µM.

These data come from patent US20240409585A1, “MACROCYCLIC IMMUNOMODULATORS” (priority 2021, published 2024).
